Results on six compounds are retold here after patent US20220330547A1, “INSECT REPELLENT” (Rilis Co., Ltd., priority 2019, published 2022).

Data set [1] in a line: oxidative modification of sample on filter paper, 40° C. for a week, measured by chromatography. The settings on record: for Variation (Oxidation) (%): decrease of area after 1 week at 40° C.; for Day of experiment (area): filter paper 1 g/m^2, measured on the day; for After 1 week (area): filter paper 1 g/m^2, sealed flask, 40° C., 150 rpm, a week. The data set is classed as physicochemical.

The subject of data set [2] is ticks. Put plainly: tick repellency test (petri dish) with filter paper heated at 150° C. Type of data set: in vivo. The settings on record: 24 hours. The procedure:
Subsequently, a relationship between the tick repellent effect resulting from a difference in oxidative modification rate and time was examined. In the test, mixed farnesyl acetone isomers, trans-farnesyl acetone, 2,4-DHAP and xanthoxyline were each dissolved to 1 g/m^2 in acetone, and each filter paper added thereto was heated at 150° C. only for 3 minutes, 5 minutes or 26 minutes. The filter paper not heated (hereinafter referred to as 150° C., 0 min) was also prepared.
Each filter paper was placed on the center of a petri dish with a diameter of 4 cm, and 0.05 g of an attractant sample was placed on the center of filter paper. The petri dish was placed on the center of another petri dish with a diameter of 9 cm, and about 10000 ticks were provided together with a medium to this another petri dish, which was left to stand for 24 hours. After that, ticks in the 4 cm petri dish were counted.
For the repellency rate, the proportion of the number of ticks which had not been attracted was calculated by the following formula using the number of ticks entering the petri dish on which only the attractant sample was placed, x (control), and contrarily the number of ticks entering the petri dish on which mixed farnesyl acetone isomers, trans-farnesyl acetone, 2,4-DHAP or xanthoxyline was placed, n.
Repellency rate={(x−n)/x} x 100 (%)
* a small number of entering ticks =high repellency rate
It should be noted that the heating time at 150° C. is not described in detail herein, but was converted by the following Arrhenius equation described in “Sumie Yoshioka, Stability of drugs and dosage forms, p. 142, 1995, Nankodo Co., Ltd.” as in Drug testing on Stability studies.
Arrhenius equation: k =A exp (-E/RT)
* Activation energy of stability studies E=22.1 kcal/mol.

Data set [3] concerns ticks. The settings on record: 1 g/m^2, after 24 hours; for Mortality rate after correction (%): corrected by mortality rate without treatment. The procedure:
Incidentally, a tick killing experiment was performed by a filter paper contact method to examine whether or not the insecticidal effect is contained in the repellent effect of 2,4-DHAP and xanthoxyline. In the experiment, ticks attracted to the untreated site in the repellent test by the petri-dish method were obtained on a filter paper by the sodium chloride floatation method, and living ticks were gently taken with a fine brush (one stroke). A 5 cm x 10 cm filter paper permeated with 1 g/m^2 of a sample was dried in air and shaped into a bag form. The taken ticks were put therein, and the opening thereof was closed with clips. After 24 hours, living ticks and dead ticks were measured.
In the tick killing test, 2,4-DHAP, xanthoxyline and DEET were compared. DEET is a compound used as a repellent for e.g. insects (anti-insect agent), and is also called N,N-diethyl-3-methylbenzamide or N,N-diethyl-m-toluamide.
In Table 3, the mortality rates (%) of 2,4-DHAP, xanthoxyline and DEET are values corrected by the mortality rate without treatment based on the mortality rate without treatment.

For data set [4] the following is noted: 25° C.; cited from earlier work.
Data set [5] relates to ticks. Put plainly: repellent effect of farnesyl acetone in an environment of 150° C. (background statement). Type of data set: in vivo. The procedure: For example, if there is a heat treatment step in the step of the anti-tick treatment, because oxidation reactivity due to heat is high, the repellent effect is already reduced to 30% or less after about 3 minutes in an environment of 150° C., and the repellent effect is reduced to 0% by at most 60 minutes. That is to say, it is troublesome to subject living materials of interest to the anti-tick treatment.

Data set [6] concerns ticks. The settings on record: maintained over 14 days; cited from earlier work.
Where [7] appears, read: 1 g/m^2, 150° C. 0 min (not heated).
The mark [8] stands for this setting: 1 g/m^2, 150° C. 3 min (corresponding to 25° C., about 4 months).
Setting [9] is: 1 g/m^2, 150° C. 5 min (corresponding to 25° C., about 7 months).
Where [10] appears, read: 1 g/m^2, 150° C. 26 min (corresponding to 25° C., about 3 years).

Several values for one entry are separate records, joined by “and”; a condition that tells them apart may be missing. Equal values may be shown once. Read-outs that look alike come from different tables or passages of the source. Some results are limits rather than exact numbers.

Take `CC(=O)CCC=C(C)CCC=C(C)CCC=C(C)C` (mixture of isomers) [Mixed farnesyl acetone isomers, farnesyl acetone]: the “Variation (Oxidation) (%)” value in data set [1] and in data set [1] (listed as mixed farnesyl acetone isomers) was 67.10% in each case. Moreover, in data set [1], the “Day of experiment (area)” value is on record as 3145831 area. In data set [1], the “After 1 week (area)” value came to 1038335 area. Also, the Repellency rate with ticks [2] (setting [7]) was 90.60%; in the data set on ticks [2] (setting [8]), 94.90%; with ticks [2] (setting [9]), 24.60%; with ticks [2] (1 g/m^2, 150° C. 5 min (corresponding to 25° C., about 7 months), listed as mixed farnesyl acetone isomers), 30%; in the data set on ticks [2] (setting [10]) it was 17.60%; in the data set with ticks [2] (1 g/m^2, 150° C. 26 min (corresponding to 25° C., about 3 years), listed as mixed farnesyl acetone isomers) it was 17.6%.
Consider `CC(=O)c1ccc(O)cc1O` [2,4-DHAP, 2′,4′-dihydroxyacetophenone], for which, in data set [1], the “Variation (Oxidation) (%)” value is 7.4% and 7.46%; the “Day of experiment (area)” value stood at 12027833 area; the “After 1 week (area)” value is listed as 11130386 area. The compound also showed a Repellency rate with ticks [2] (setting [7]) of 39.80%. The compound also displayed a Repellency rate in the data set with ticks [2] (setting [8]) of 37.40%. In the data set on ticks [3] (Average), the Dead ticks was determined as 4, the Living ticks is on record as 106 and the “Mortality rate (%)” value is reported as 3.4%. Also, in the data set on ticks [3] (single run), the Living ticks is 81 and 131; the “Mortality rate (%)” value is 2.4% and 4.4%; the “Mortality rate after correction (%)” value is reported as 0.0%. In data set [4], the transpiration properties is 6×10^-5 mmHg.
As for `CCN(CC)C(=O)c1cccc(C)c1` [DEET, N,N-diethyl-3-methylbenzamide, reference compound], in the data set on ticks [3] (Average), the Dead ticks was 62, the Living ticks turned out to be 2, the “Mortality rate (%)” value amounted to 96.2% and the “Mortality rate after correction (%)” value is given as 95.8%. Further, in the data set with ticks [3] (single run), the “Mortality rate (%)” value is 100.0% and 92.3%; the “Mortality rate after correction (%)” value is 100.0% and 91.5%.
For the compound `COc1cc(O)c(C(C)=O)c(OC)c1` [Xanthoxyline], the “Variation (Oxidation) (%)” value in data set [1] and in data set [1] (listed as xanthoxyline) was 2.42% throughout. The “Day of experiment (area)” value in data set [1] is reported as 5756751 area. For the same compound, in data set [1], the “After 1 week (area)” value was 5617299 area. Also, the Repellency rate with ticks [2] (setting [7]) is on record as 92.40%; in the data set on ticks [2] (setting [8]), 97.40%; in the data set with ticks [2] (1 g/m^2, 150° C. 3 min (corresponding to 25° C., about 4 months), listed as xanthoxyline), no less than 90%; in the data set on ticks [2] (setting [9]), 95.80%; in the data set on ticks [2] (1 g/m^2, 150° C. 5 min (corresponding to 25° C., about 7 months), listed as xanthoxyline), no less than 90%; with ticks [2] (setting [10]) it was 93.00%. The Dead ticks in the data set on ticks [3] (Average) is 24; in the data set with ticks [3] (single run), 26 and 22. Further, the Living ticks is 75 in the data set on ticks [3] (Average); 90 and 59 in the data set with ticks [3] (single run). Further, the transpiration properties in data set [4] is reported as 1.5×10^-5 mmHg.
As for `CC(=O)CCC=C(C)CCC=C(C)CCC=C(C)C` [farnesyl acetone], the repellent effect in the data set with ticks [5] (after about 3 minutes at 150° C.) is given as no more than 30%; in the data set on ticks [5] (by at most 60 minutes at 150° C.), 0%; in the data set with ticks [6], no less than 95%.
In the case of `CC(=O)CC/C=C(\C)CC/C=C(\C)CCC=C(C)C` [trans-Farnesyl acetone], the “Variation (Oxidation) (%)” value in data set [1] and in data set [1] (listed as trans-farnesyl acetone) was 19.29% each time. Also, the “Day of experiment (area)” value in data set [1] stood at 4022168 area. The “After 1 week (area)” value in data set [1] is listed as 3246218 area. Moreover, the Repellency rate in the data set with ticks [2] (setting [7]) was 94.30%; in the data set with ticks [2] (setting [8]), 90.50%; with ticks [2] (setting [9]) it was 65.70%; in the data set with ticks [2] (1 g/m^2, 150° C. 5 min (corresponding to 25° C., about 7 months), listed as trans-farnesyl acetone), “below 65%”; in the data set with ticks [2] (setting [10]) it was 0.00%.
